Laboratory results: EP0164635A2, “Imidazothiazolemethylene-acetohydrazide derivatives, preparation thereof and pharmaceutical composition having diuretic activity” (MEDIOLANUM FARMACEUTICI s.r.l., priority 1984, dated 1985)
Several values for one entry are separate records, joined by “and”; a condition that tells them apart may be missing. Equal values may be shown once.

What was measured:
rats = assay: Diuretic activity: urinary sodium excretion over 6 hours after oral administration; type: in vivo, rat; settings: rat, sodium urinary excretion in 6 h vs controls (control = 100), read-out: Diuretic effect %; for response vs control in vivo at 10 mg/kg: dose 10 mg/kg oral; for response vs control in vivo at 20 mg/kg: dose 20 mg/kg oral
Method: The first series of tests was carried out to rats orally administered with distilled water (25 ml/kg) containing the product under test, previously suspended in Tween 80 (1% v/v with respect to water). Urina of the 6 hours following the treatment was collected in order to measure the sodium concentration, by means of atomic absorption. The ratio of the meq/100 g of body weight of the treated animals to the corresponding ratio of the meq/100 g of body weight of the control animals (treated with the sole vehicle) was calculated, in order to determine the dose of the test compound doubling or trebling or anyway increasing the sodium excretion.

rat [1] = assay: Excreted urinary volumes after oral administration, with a second water load after 0-3 h; type: in vivo
Method: (§1) The compounds were administered by the oral route, under the same conditions as described in the previous test, but the animals, after the O-3 hours interval, were treated with further 25 ml/kg of distilled water, by intubation.

rat [2] = assay: Excreted urinary electrolytes after oral administration, with a second water load after 0-3 h; type: in vivo
Method: as §1

in vivo = settings: rat

Cc1cn2c(C=NNC(=O)CN(C)C)c(-c3ccccc3)nc2s1 [Example 8, N,N-Dimethylaminoacetyl-[[2-methyl-6-phenyl-imida-zo[2,1-b]thiazole-5-yl]methylene]hydrazide]
response vs control in vivo at 1 mg/kg (rats; dose 1 mg/kg oral): 300%
EXCRETED URINARY VOLUMES WITH RESPECT TO BODY WEIGHT (rat [1]; 2.5 mg/kg, 0-3 h): 0.0265 L/kg
EXCRETED URINARY VOLUMES WITH RESPECT TO BODY WEIGHT (rat [1]; 2.5 mg/kg, 0-6 h): 0.0432 L/kg
EXCRETED URINARY VOLUMES WITH RESPECT TO BODY WEIGHT (rat [1]; 2.5 mg/kg, 3-6 h): 0.0167 L/kg
EXCRETED URINARY VOLUMES WITH RESPECT TO BODY WEIGHT (rat [1]; 10 mg/kg, 0-3 h): 0.0345 L/kg
EXCRETED URINARY VOLUMES WITH RESPECT TO BODY WEIGHT (rat [1]; 10 mg/kg, 0-6 h): 0.0509 L/kg
EXCRETED URINARY VOLUMES WITH RESPECT TO BODY WEIGHT (rat [1]; 10 mg/kg, 3-6 h): 0.0164 L/kg
EXCRETED URINARY ELECTROLYTES WITH RESPECT TO BODY WEIGHT, K^+ (rat [2]; 10 mg/kg, 0-3 h): 0.66 mEq/kg
EXCRETED URINARY ELECTROLYTES WITH RESPECT TO BODY WEIGHT, Na^+ (rat [2]; 10 mg/kg, 0-3 h): 2.24 mEq/kg
EXCRETED URINARY ELECTROLYTES WITH RESPECT TO BODY WEIGHT, K^+ (rat [2]; 10 mg/kg, 0-6 h): 0.99 mEq/kg
EXCRETED URINARY ELECTROLYTES WITH RESPECT TO BODY WEIGHT, Na^+ (rat [2]; 10 mg/kg, 0-6 h): 2.39 mEq/kg
EXCRETED URINARY ELECTROLYTES WITH RESPECT TO BODY WEIGHT, K^+ (rat [2]; 10 mg/kg, 3-6 h): 0.33 mEq/kg
EXCRETED URINARY ELECTROLYTES WITH RESPECT TO BODY WEIGHT, Na^+ (rat [2]; 10 mg/kg, 3-6 h): 0.15 mEq/kg
EXCRETED URINARY ELECTROLYTES WITH RESPECT TO BODY WEIGHT, K^+ (rat [2]; head prints 10 mg/kg, 0-3 h): 0.48 mEq/kg
EXCRETED URINARY ELECTROLYTES WITH RESPECT TO BODY WEIGHT, Na^+ (rat [2]; head prints 10 mg/kg, 0-3 h): 1.32 mEq/kg
EXCRETED URINARY ELECTROLYTES WITH RESPECT TO BODY WEIGHT, K^+ (rat [2]; head prints 10 mg/kg, 0-6 h): 0.83 mEq/kg
EXCRETED URINARY ELECTROLYTES WITH RESPECT TO BODY WEIGHT, Na^+ (rat [2]; head prints 10 mg/kg, 0-6 h): 1.38 mEq/kg
EXCRETED URINARY ELECTROLYTES WITH RESPECT TO BODY WEIGHT, K^+ (rat [2]; head prints 10 mg/kg, 3-6 h): 0.35 mEq/kg
EXCRETED URINARY ELECTROLYTES WITH RESPECT TO BODY WEIGHT, Na^+ (rat [2]; head prints 10 mg/kg, 3-6 h): 0.056 mEq/kg
LD50 (in vivo; ip): > 3000 mg/kg
LD50 (in vivo; po): > 3000 mg/kg

CN(C)CC(=O)NN=Cc1c(-c2ccccc2)nc2n1CCS2 [Example 9]
response vs control in vivo at 10 mg/kg (rats): 230%
LD50 (in vivo; ip): > 1000 mg/kg
LD50 (in vivo; po): > 3000 mg/kg

Cc1nc2n(c1C=NNC(=O)CN(C)C)CCS2 [Example 10]
LD50 (in vivo; ip): > 1000 mg/kg
LD50 (in vivo; po): > 1000 mg/kg

CN(C)CC(=O)NN=Cc1c(-c2ccc(Cl)cc2)nc2n1CCS2 [Example 11]
response vs control in vivo at 20 mg/kg (rats): 230%
LD50 (in vivo; ip): ~600 mg/kg
LD50 (in vivo; po): ~800 mg/kg

Cc1ccc(-c2nc3n(c2C=NNC(=O)CN(C)C)CCS3)cc1 [Example 12]
response vs control in vivo at 20 mg/kg (rats): 120%
LD50 (in vivo; ip): ~600 mg/kg
LD50 (in vivo; po): ~800 mg/kg

NCC(=O)NN=Cc1c(-c2ccccc2)nc2sccn12 [Example 14]
response vs control in vivo at 20 mg/kg (rats): 130%
LD50 (in vivo; po): > 1000 mg/kg

NS(=O)(=O)c1cc(C(=O)O)c(NCc2ccco2)cc1Cl [Furosemide, furosemide, reference compound]
response vs control in vivo at 10 mg/kg (rats): 490%
EXCRETED URINARY VOLUMES WITH RESPECT TO BODY WEIGHT (rat [1]; 10 mg/kg, 0-3 h): 0.0365 L/kg and 0.0265 L/kg
EXCRETED URINARY VOLUMES WITH RESPECT TO BODY WEIGHT (rat [1]; 10 mg/kg, 0-6 h): 0.0451 L/kg and 0.0472 L/kg
EXCRETED URINARY VOLUMES WITH RESPECT TO BODY WEIGHT (rat [1]; 10 mg/kg, 3-6 h): 0.0107 L/kg and 0.0186 L/kg
EXCRETED URINARY ELECTROLYTES WITH RESPECT TO BODY WEIGHT, K^+ (rat [2]; 10 mg/kg, 0-3 h): 0.87 mEq/kg and 1.02 mEq/kg
EXCRETED URINARY ELECTROLYTES WITH RESPECT TO BODY WEIGHT, Na^+ (rat [2]; 10 mg/kg, 0-3 h): 1.30 mEq/kg and 1.82 mEq/kg
EXCRETED URINARY ELECTROLYTES WITH RESPECT TO BODY WEIGHT, K^+ (rat [2]; 10 mg/kg, 0-6 h): 1.15 mEq/kg and 1.11 mEq/kg
EXCRETED URINARY ELECTROLYTES WITH RESPECT TO BODY WEIGHT, Na^+ (rat [2]; 10 mg/kg, 0-6 h): 1.38 mEq/kg and 1.85 mEq/kg
EXCRETED URINARY ELECTROLYTES WITH RESPECT TO BODY WEIGHT, K^+ (rat [2]; 10 mg/kg, 3-6 h): 0.24 mEq/kg and 0.13 mEq/kg

NS(=O)(=O)c1cc2c(cc1C(F)(F)F)NCNS2(=O)=O [Hydroflumethia-zide, hydroflumethiazide, reference compound]
response vs control in vivo at 5 mg/kg (rats; dose 5 mg/kg oral): 260%
LD50 (in vivo; iv): 750 mg/kg

CC(=O)S[C@@H]1CC2=CC(=O)CC[C@]2(C)[C@H]2CC[C@@]3(C)[C@@H](CC[C@@]34CCC(=O)O4)[C@H]12 [Spironolactone, spironolactone, reference compound]
response vs control in vivo at 20 mg/kg (rats): 360%
